Test results taken from PubChem BioAssay (NCI).
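Method: 48-hour compound exposure of cells in 96-well plates, five concentrations, linear interpolation of endpoints. The concentration for full growth arrest is given as TGI.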

How the values were obtained:
Experiment in all cases: inhibition of tumour cell growth, NCI panel, 48 h
A549 NSCLC = system: A549 NSCLC
A498 renal = system: A498 renal
SK-MEL-2 melanoma = system: SK-MEL-2 melanoma
NCI-H226 lung = system: NCI-H226 lung
TK-10 renal = system: TK-10 renal
SN12C renal = system: SN12C renal
T-47D breast = system: T-47D breast
786-0 renal = system: 786-0 renal
UACC-62 melanoma = system: UACC-62 melanoma
HCT-116 colon = system: HCT-116 colon
MCF7 breast = system: MCF7 breast
SR leukemia = system: SR leukemia
COLO 205 colon = system: COLO 205 colon
SNB-75 CNS = system: SNB-75 CNS
HT29 colon = system: HT29 colon
MDA-MB-435 = system: MDA-MB-435
SNB-19 CNS = system: SNB-19 CNS
SF-539 CNS = system: SF-539 CNS
BT-549 breast = system: BT-549 breast
NCI/ADR-RES ovarian = system: NCI/ADR-RES ovarian
OVCAR-4 ovarian = system: OVCAR-4 ovarian
M14 melanoma = system: M14 melanoma
UACC-257 melanoma = system: UACC-257 melanoma
CAKI-1 renal = system: CAKI-1 renal
UO-31 renal = system: UO-31 renal
NCI-H460 lung = system: NCI-H460 lung
K-562 leukemia = system: K-562 leukemia
OVCAR-8 ovarian = system: OVCAR-8 ovarian
MDA-MB-231 breast = system: MDA-MB-231 breast
RPMI-8226 leukemia = system: RPMI-8226 leukemia
HCT-15 colon = system: HCT-15 colon
LOX IMVI melanoma = system: LOX IMVI melanoma
SK-MEL-28 melanoma = system: SK-MEL-28 melanoma
DU-145 prostate = system: DU-145 prostate
OVCAR-3 ovarian = system: OVCAR-3 ovarian
PC-3 prostate = system: PC-3 prostate
U251 CNS = system: U251 CNS
SF-295 CNS = system: SF-295 CNS
SF-268 CNS = system: SF-268 CNS
MALME-3M melanoma = system: MALME-3M melanoma
MDA-N = system: MDA-N
ACHN renal = system: ACHN renal
NCI-H522 lung = system: NCI-H522 lung
SK-OV-3 ovarian = system: SK-OV-3 ovarian
HOP-92 NSCLC = system: HOP-92 NSCLC
MOLT-4 leukemia = system: MOLT-4 leukemia
SW-620 colon = system: SW-620 colon
NCI-H23 lung = system: NCI-H23 lung
HOP-62 NSCLC = system: HOP-62 NSCLC
EKVX NSCLC = system: EKVX NSCLC
SK-MEL-5 melanoma = system: SK-MEL-5 melanoma
HL-60(TB) leukemia = system: HL-60(TB) leukemia
CCRF-CEM leukemia = system: CCRF-CEM leukemia
HCC-2998 colon = system: HCC-2998 colon
KM12 colon = system: KM12 colon
OVCAR-5 ovarian = system: OVCAR-5 ovarian
RXF 393 renal = system: RXF 393 renal
HS 578T breast = system: HS 578T breast
IGROV1 ovarian = system: IGROV1 ovarian

CC1=NN(c2nc(N)nc(C(C#N)C(=O)c3cc4c(cc3Cl)Sc3nccn3S4(=O)=O)n2)C(C)(C)C1 (stereo not drawn)
TGI (A549 NSCLC): > 100 µM
TGI (A498 renal): > 100 µM
TGI (SK-MEL-2 melanoma): 53.7 µM
TGI (NCI-H226 lung): 90 µM
TGI (TK-10 renal): > 100 µM
TGI (SN12C renal): > 100 µM
TGI (T-47D breast): 77.9 µM
TGI (786-0 renal): 34 µM
TGI (UACC-62 melanoma): 66.9 µM
TGI (HCT-116 colon): > 100 µM
TGI (MCF7 breast): > 100 µM
TGI (SR leukemia): 25 µM
TGI (COLO 205 colon): > 100 µM
TGI (SNB-75 CNS): > 100 µM
TGI (HT29 colon): > 100 µM
TGI (MDA-MB-435): > 100 µM
TGI (SNB-19 CNS): > 100 µM
TGI (SF-539 CNS): > 100 µM
TGI (BT-549 breast): 98.6 µM
TGI (NCI/ADR-RES ovarian): > 100 µM
TGI (OVCAR-4 ovarian): > 100 µM
TGI (M14 melanoma): > 100 µM
TGI (UACC-257 melanoma): 48.5 µM
TGI (CAKI-1 renal): > 100 µM
TGI (UO-31 renal): 67.2 µM
TGI (NCI-H460 lung): > 100 µM
TGI (K-562 leukemia): > 100 µM
TGI (OVCAR-8 ovarian): > 100 µM
TGI (MDA-MB-231 breast): 55 µM
TGI (RPMI-8226 leukemia): 63.2 µM
TGI (HCT-15 colon): 67.3 µM
TGI (LOX IMVI melanoma): > 100 µM
TGI (SK-MEL-28 melanoma): > 100 µM
TGI (DU-145 prostate): 94.4 µM
TGI (OVCAR-3 ovarian): 57 µM
TGI (PC-3 prostate): > 100 µM
TGI (U251 CNS): > 100 µM
TGI (SF-295 CNS): > 100 µM
TGI (SF-268 CNS): > 100 µM
TGI (MALME-3M melanoma): 48.5 µM
TGI (MDA-N): > 100 µM
TGI (ACHN renal): > 100 µM
TGI (NCI-H522 lung): 69.7 µM
TGI (SK-OV-3 ovarian): 51.4 µM
TGI (HOP-92 NSCLC): > 100 µM
TGI (MOLT-4 leukemia): 68.2 µM
TGI (SW-620 colon): > 100 µM
TGI (NCI-H23 lung): 37.2 µM
TGI (HOP-62 NSCLC): > 100 µM
TGI (EKVX NSCLC): > 100 µM
TGI (SK-MEL-5 melanoma): 48.1 µM
TGI (HL-60(TB) leukemia): 61.1 µM
TGI (CCRF-CEM leukemia): 50.3 µM
TGI (HCC-2998 colon): 33.8 µM
TGI (KM12 colon): > 100 µM
TGI (OVCAR-5 ovarian): > 100 µM
TGI (RXF 393 renal): > 100 µM
TGI (HS 578T breast): > 100 µM
TGI (IGROV1 ovarian): > 100 µM

Cn1c(=O)[nH]c2nccnc2c1=O
TGI (A549 NSCLC): > 10 µM
TGI (A498 renal): > 10 µM
TGI (SK-MEL-2 melanoma): > 10 µM
TGI (NCI-H226 lung): > 10 µM
TGI (TK-10 renal): > 10 µM
TGI (SN12C renal): > 10 µM
TGI (T-47D breast): > 10 µM
TGI (786-0 renal): > 10 µM
TGI (UACC-62 melanoma): > 10 µM
TGI (HCT-116 colon): > 10 µM
TGI (MCF7 breast): > 10 µM
TGI (SR leukemia): > 10 µM
TGI (COLO 205 colon): > 10 µM
TGI (SNB-75 CNS): > 10 µM
TGI (HT29 colon): > 10 µM
TGI (MDA-MB-435): > 10 µM
TGI (SNB-19 CNS): > 10 µM
TGI (SF-539 CNS): > 10 µM
TGI (BT-549 breast): > 10 µM
TGI (NCI/ADR-RES ovarian): > 10 µM
TGI (OVCAR-4 ovarian): > 10 µM
TGI (M14 melanoma): > 10 µM
TGI (UACC-257 melanoma): > 10 µM
TGI (CAKI-1 renal): > 10 µM
TGI (UO-31 renal): > 10 µM
TGI (NCI-H460 lung): > 10 µM
TGI (K-562 leukemia): > 10 µM
TGI (OVCAR-8 ovarian): > 10 µM
TGI (MDA-MB-231 breast): > 10 µM
TGI (RPMI-8226 leukemia): > 10 µM
TGI (HCT-15 colon): > 10 µM
TGI (LOX IMVI melanoma): > 10 µM
TGI (SK-MEL-28 melanoma): > 10 µM
TGI (DU-145 prostate): > 10 µM
TGI (OVCAR-3 ovarian): > 10 µM
TGI (PC-3 prostate): > 10 µM
TGI (U251 CNS): > 10 µM
TGI (SF-295 CNS): > 10 µM
TGI (SF-268 CNS): > 10 µM
TGI (MALME-3M melanoma): > 10 µM
TGI (MDA-N): > 10 µM
TGI (ACHN renal): > 10 µM
TGI (NCI-H522 lung): > 10 µM
TGI (SK-OV-3 ovarian): > 10 µM
TGI (HOP-92 NSCLC): > 10 µM
TGI (MOLT-4 leukemia): > 10 µM
TGI (SW-620 colon): > 10 µM
TGI (NCI-H23 lung): > 10 µM
TGI (HOP-62 NSCLC): > 10 µM
TGI (EKVX NSCLC): > 10 µM
TGI (SK-MEL-5 melanoma): > 10 µM
TGI (HL-60(TB) leukemia): > 10 µM
TGI (CCRF-CEM leukemia): > 10 µM
TGI (HCC-2998 colon): > 10 µM
TGI (KM12 colon): > 10 µM
TGI (OVCAR-5 ovarian): > 10 µM
TGI (RXF 393 renal): > 10 µM
TGI (HS 578T breast): > 10 µM
TGI (IGROV1 ovarian): > 10 µM
